Results reported in patent publication US8691799B2, “Materials and methods for treatment of cancer and identification of anti-cancer compounds” (priority 2001, dated 2014).

Legend:
B16-F10 melanoma = experiment: Mouse survival, B16-F10 melanoma in C57 black mice; type: in vivo; conditions: 1 mg/Kg/day for 25 days, B16-F10 s.c.
Text: Antitumor Activity in the Nude Mouse Tumor Xenograft Model. Nude mice and C57 BL-6 black mice (National Cancer Institute, Bethesda, Md.) were maintained in accordance with the Institutional Animal Care and Use Committee (IACUC) procedures and guidelines. v-Src- and oncogenic H-Ras-transformed NIH 3T3, A549, MDA-MB-468 and Calu-1 cells were harvested, resuspended in PBS and injected s.c. into the right and left flank (10×10^6 cells per flank) of 8 week old female nude mice as reported previously (Sun, J. et al. Cancer Res., 1999, 59:4919-4926). Similarly, murine B16-F10 Melanoma cells were injected s.c. into the right and left flank (10^6 cells per flank) of C57 black mice. When tumors reached about 150 mm^3, animals were randomized (five animals per group; two tumors per animal) and dosed i.p. with 0.2 ml once daily. Control animals received DMSO (20%) vehicle whereas treated animals were injected with JSI-124 (1 mg/kg/day) in 20% DMSO in water. The tumor volumes were determined by measuring the length (l) and the width (w) and calculating the volume (V=1w^2/2) as described previously (Sun, J. et al. Cancer Res., 1999, 59:4919-4926). Statistical significance between control and treated animals were evaluated by using Student's t-test. For the mouse survival experiments, C57 BL-6 black mice were implanted s.c. with B16-F10 cells (10^5 to 10^6 cells per flank). On day 5 after implantation the mice were randomized (6 animals per group) and treated with either vehicle or JSI-124 (1 mg/Kg/day) for 25 days. Percent surviving mice was determined by monitoring the death of mice until all mice died. Two experiments of 12 animals each (6 control and 6 treated with JSI-124) were carried out. For statistical analysis: for each of the two experiments, mice receiving JSI-124 were compared to those receiving vehicle control with respect to survival using the permutation log rank test as implemented in the statistical software package, ProcStatXact (p-values are two sided and exact).

phosphotyrosine STAT3 = experiment: Cytoblot screening for phospho-STAT3 inhibition in v-Src-transformed NIH 3T3 cells; type: cell-based, murine; conditions: 10 μM, 4 hr
Method: Cytoblot Screening for Phospho-STAT3 Inhibition. NIH 3T3 cells stably transfected with v-Src or NIH 3T3 vector control cells (Turkson, J. et al. Mol. Cell Biol., 1999, 19:7519-7528) were plated into sterile, opaque, 96-well tissue culture plates at 25,000 cells/well. After overnight growth at 37° C., the cells were treated for 4 hr in the presence of either vehicle control or 10 μM of NCI Diversity Set compounds (http://dtp.nci.nih.gov/). After treatment, cells were washed in 100 μl cold TBS (10 mM Tris, pH 7.4, 150 mM NaCl), then fixed for one hour at 4° C. with 190 μl per well of cold 3.7% formaldehyde in TBS as described previously (Stockwell, B. R. et al. Chem. Biol., 1999, 6:71-83). Membranes were permeabilized during a five-minute incubation in ice-cold methanol at 4° C. Cells were washed with 180 μl per well 3% milk in TBS then rocked overnight at 4° C. with 50 μl per well of 3% milk in TBS containing 1:1000 dilution of anti-phospho-STAT3 (P-Tyr 705; Cell Signaling Technology, Beverly, Mass.) and 1:2000 dilution of HRP-conjugated goat anti-rabbit IgG (Jackson ImmunoResearch, West Grove, Pa.). Antibodies were aspirated and then plates were washed twice with 180 μl per well TBS. […] Quantification of results was done using GS-700 scanning densitometer (Bio-Rad Laboratories, Hercules, Calif.).

phospho-Akt = experiment: Western blotting for phospho-Akt; type: cell-based, human; conditions: A549 and MDA-MB-468 cells, up to 10 μM
Method: (§1) Western Blotting. Treated cell samples were lysed in 30 mM Hepes, pH 7.5, 10 mM NaCl, 5 mM MgCl2, 25 mM NaF, 1 mM EGTA, 1% Triton-X-100, 10% glycerol, 2 mM sodium orthovanadate, 10 μg/ml aprotinin, 10 μg/ml soybean trypsin inhibitor, 25 μg/ml leupeptin, 2 mM PMSF, and 6.4 mg/ml p-nitrophenylphosphate. Phospho-STAT3, phospho-AKT, phospho-MEK, and phospho-p42/p44 MAPK antibodies were obtained from Cell Signaling Technologies, Cambridge, Mass. Antibodies to STAT3, JAK2, and phospho-INK were purchased from Santa Cruz Biotechnology, Santa Cruz, Calif. Phospho-JAK2 antibody came from Upstate Biotechnology, Lake Placid, N.Y. Membranes were blocked in either 5% milk in PBS, pH 7.4, containing 0.1% Tween-20 (PBS-T) or 1% BSA in TBS, pH 7.5, containing 0.1% Tween-20 (TBS-T). Phospho-specific antibodies (excepting P-MAPK and P-JNK) were incubated in 1% BSA in TBS-T while all other antibodies were diluted in 5% milk in PBS-T for either 2 hr at room temperature or overnight at 4° C. HRP-conjugated secondary antibodies (Jackson ImmunoResearch) were diluted in 5% milk in either PBS-T or TBS-T at 1:1000 dilution for one hour at room temperature. Western blots were visualized using enhanced chemiluminescence as described previously (Blaskovich, M. A. et al. Nat. Biotechnol., 2000, 18:1065-1070).

STAT3 = experiment: Western blotting for STAT3 protein levels; type: cell-based, human; conditions: A549 and MDA-MB-468 cells
Method: as §1
Immunoprecipitation of STAT3. […]

## CC(C)(O)/C=C/C(=O)[C@](C)(O)[C@H]1[C@H](O)C[C@@]2(C)[C@@H]3CC=C4[C@@H](C=C(O)C(=O)C4(C)C)[C@]3(C)C(=O)C[C@]12C [JSI-124, cucurbitacin I]
B16-F10 melanoma
  T50 (day until which 50% of mice survived): 34 days
  T50 increase versus vehicle: 13 days
  day by which all mice died: 42 days
  day by which none of the treated mice were dead: 23 days
Phosphotyrosine STAT3
  phosphotyrosine STAT3 levels (cytoblot): reduced phosphotyrosine STAT3 to barely detectable levels
phospho-Akt
  phospho-Akt levels: no inhibitory effect
STAT3
  STAT3 protein levels: no effect on the protein levels of STAT3 and JAK2
